Patent US20250170121A1, “ISOQUINOLINONE COMPOUND, AND PREPARATION METHOD AND USE THEREFOR” (FUDAN UNIVERSITY, priority 2022, published 2025)

What was measured:
[1] = target: FABP3 (Homo sapiens, UniProt P05413); assay: FABP3 inhibition rate, ANS substrate competition method (illustrated by the FABP4 system); assay type: binding; settings: compound 25 μM
Description: (§1) Considering that inhibition of FABP3 would cause myocardial function damage and bring potential safety issues, we tested the inhibitory activity of some compounds on FABP3. The activity test is illustrated by the example of the FABP4 activity test system as below.
(§2) Experimental principle and method: Once the free non-covalent fluorescent probe ANS binds to FABP4, the ANS fluorescence intensity will increase and its spectrum will be blue shifted. In this experiment, the inhibitory effect of the compound on FABP4 was evaluated by measuring the change in the ANS fluorescence signal value. For the FABP4 inhibitory activity test, the ANS substrate competition method was used, and we used the method of Kane and Bernlohr (E. Marr, M. Tardie, M. Carty, T. Brown Phillips, I. K. Wang, W. Soeller, X. Qiu, G. Karam, Expression, purification, crystallization and structure of human adipocyte lipid-binding protein (aP2). Acta Crystallogr., Sect. F: Struct. Biol. Cryst. Commun. 62 (2006) 1058-1060.). Human FABP4 with a His tag was expressed in the BL21 (DE3) strain and then purified using a Ni column with a His tag to generate the protein. In the detection system, the concentration of 1,8-ANS substrate was 10 μM, the final concentration of FABP4 was 10 μM, and then the compound prepared by the present invention was added at the required concentration for incubation for 3 minutes, and finally the fluorescence signal was detected at an excitation wavelength (EX) of 370 nm/emission wavelength (EM) of 470 nm. The inhibition rate (%) of the test sample on FABP4 was calculated according to the fluorescence absorption value of the system. The inhibition rate (%) was calculated according to the following equation: […]
(§3) FX represents the fluorescence value (fluorescence, F) of the system measured in the presence of compound x;
(§4) Fbackground represents the fluorescence value of the fluorescent substrate ANS;
(§5) F0% represents the fluorescence value of the system when the inhibition rate is 0%, that is, when no compound was added.

[2] = target: T1, Human FABP4 (Homo sapiens, UniProt P15090); assay: FABP4 inhibition rate, ANS substrate competition (fluorescence) method; assay type: binding; settings: compound 25 μM; 10 μM 1,8-ANS, 10 μM FABP4
T1 construct: His tag; made in house; host or cells: E. coli BL21 (DE3)
Description: as §1, §2, §3, §4, §5

[3] = target: FABP5 (Homo sapiens, UniProt Q01469); assay: FABP5 inhibition rate, ANS substrate competition method (illustrated by the FABP4 system); assay type: binding; settings: compound 25 μM
[4] = test system: MCP-1 secretion in THP-1 cells; assay: MCP-1 secretion in LPS-stimulated THP-1 monocyte-derived macrophages (ELISA); assay type: cell-based; settings: 25 μM, 10 μM and 5 μM; 18 h incubation, 100 ng/ml LPS 6 h; FIG. 2
Description: (§6) In FIG. 2A to FIG. 2C, the vertical axis represents the amount (ng) of MCP-1 contained in each mg of cell protein: in FIG. 2D, the vertical axis represents the relative concentration of MCP-1 (ng/mg cellular protein % LPS). Wherein, Control represents blank control treatment, LPS represents lipopolysaccharide treatment, BMS309403 represents inhibitor positive control treatment, RO6806051 (RO) represents lead compound treatment, and Y2, Y3, Y15, Y16 and Y18 represent treatments with compounds Y2, Y3, Y15, Y16 and Y18 prepared in the present invention, respectively.
(§7) Effects of the compounds on monocyte chemoattractant factor-1 (MCP-1) and interleukin-6 (IL-6) in THP-1 monocyte-derived macrophage.
(§8) First, monocytic cell line THP-1 in logarithmic growth phase was plated on a 96-well plate at a cell density of 5*10^5/ml; then 100 nM phorbol myristate ester (PMA) was added to induce the cells for 24 hours to differentiate into macrophages; then the cells were washed once or twice with phosphate buffered saline (PBS), and different concentrations of compounds (5, 10, 25 μM) were added for incubation for 18 hours; finally, after 6 hours of stimulation with 100 ng/ml lipopolysaccharide (LPS), the supernatant was collected and diluted to a certain multiple and the contents of MCP-1 and IL-6 were detected using enzyme-linked immunosorbent assay (ELISA), and cell protein was collected and the protein concentration was measured by BCA method for calibration.

[5] = test system: IL-6 secretion in THP-1 cells; assay: IL-6 secretion in LPS-stimulated THP-1 monocyte-derived macrophages (ELISA); assay type: cell-based; settings: FIG. 3
Description: as §6, with “3,” for “2A to FIG. 2C,”, “protein.” for “protein: in FIG. 2D, the vertical axis represents the relative concentration of MCP-1 (ng/mg cellular protein % LPS).”, “Control (Con)” for “Control”
as §7, §8

T1 sequence (P15090 whole entry): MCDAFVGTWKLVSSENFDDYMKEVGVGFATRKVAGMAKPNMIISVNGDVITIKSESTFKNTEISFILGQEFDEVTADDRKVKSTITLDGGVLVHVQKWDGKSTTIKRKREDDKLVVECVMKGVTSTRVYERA
FABP3, sequence (P05413 whole entry): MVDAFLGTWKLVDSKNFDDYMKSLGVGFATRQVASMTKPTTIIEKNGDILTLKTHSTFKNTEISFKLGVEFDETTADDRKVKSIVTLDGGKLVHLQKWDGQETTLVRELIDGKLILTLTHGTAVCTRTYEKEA
FABP5, sequence (Q01469 whole entry): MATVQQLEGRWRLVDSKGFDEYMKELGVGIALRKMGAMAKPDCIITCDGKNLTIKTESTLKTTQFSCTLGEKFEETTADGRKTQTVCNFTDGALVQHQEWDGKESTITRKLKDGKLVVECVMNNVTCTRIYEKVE

SMILES	inhibition at 25 µM [1] [%]	inhibition at 25 µM [2] [%]	inhibition at 25 µM [3] [%]	secretion of inflammatory factor MCP-1 in THP-1 mononuclear macrophages [4]	IL-6 secretion, tendency (no concentration stated) [5]	secretion of inflammatory factor IL-6 in THP-1 mononuclear macrophages ([5]; 25 μM)
O=C(O)c1c(-c2ccc(C(F)(F)F)cc2)c2cc(Cl)ccc2c(=O)n1C1CCCC1 [Compound Y19, 6-Chloro-2-cyclopentyl-1-oxo-4-(4-(trifluoromethyl)phenyl)-1,2-dihydroisoquinoline-3-carboxylic Acid]	3	14	22	–	–	–
O=C(O)c1c(-c2ccc(O)cc2)c2cc(Cl)ccc2c(=O)n1C1CCCC1 [Compound Y16, 6-Chloro-2-cyclopentyl-4-(4-hydroxyphenyl)-1-oxo-1,2-dihydroisoquinoline-3-carboxylic Acid]	28	92	52	could reduce the secretion of inflammatory factor MCP-1	–	–
O=C(O)c1c(-c2ccccc2)c2cc(Cl)ccc2c(=O)n1-c1ccc(Cl)cc1 [Compound Y8, 6-Chloro-2-(4-chlorophenyl)-1-oxo-4-phenyl-1,2-dihydroisoquinoline-3-carboxylic Acid]	–	35	1	–	–	–
O=C(O)c1c(-c2ccc(F)cc2)c2cc(Cl)ccc2c(=O)n1C1CCCC1 [Compound Y15, 6-Chloro-2-cyclopentyl-4-(4-fluorophenyl)-1-oxo-1,2-dihydroisoquinoline-3-carboxylic Acid]	27	91	52	could reduce the secretion of inflammatory factor MCP-1	tendency to reduce IL-6 secretion but with no statistical difference	–
O=C(O)c1c(-c2ccc3c(c2)CCO3)c2cc(Cl)ccc2c(=O)n1C1CCCC1 [Compound Y20, 6-Chloro-2-cyclopentyl-4-(2,3-dihydrobenzofuran-5-yl)-1-oxo-1,2-dihydroisoquinoline-3-carboxylic Acid]	–	32	25	–	–	–
O=C(O)c1c(-c2ccc(F)c(Cl)c2)c2cc(Cl)ccc2c(=O)n1C1CCCC1 [Compound Y18, 6-Chloro-4-(3-chloro-4-fluorophenyl)-2-cyclopentyl-1-oxo-1,2-dihydroisoquinoline-3-carboxylic Acid]	16	91	46	could reduce the secretion of inflammatory factor MCP-1	tendency to reduce IL-6 secretion but with no statistical difference	could reduce the secretion of inflammatory factor IL-6
O=C(O)c1c(-c2ccc(CO)cc2)c2cc(Cl)ccc2c(=O)n1C1CCCC1 [Compound Y17, 6-Chloro-2-cyclopentyl-4-(4-(hydroxymethyl)phenyl)-1-oxo-1,2-dihydroisoquinoline-3-carboxylic Acid]	–	1	14	–	–	–
O=C(O)c1c(-c2cccnc2)c2cc(Cl)ccc2c(=O)n1C1CCCC1 [Compound Y21, 6-Chloro-2-cyclopentyl-1-oxo-4-(pyridin-3-yl)-1,2-dihydroisoquinoline-3-carboxylic Acid]	9	76	31	–	–	–
O=C(O)c1c(-c2ccccc2)c2cc(Cl)c(Cl)cc2c(=O)n1C1CCCC1 [Compound Y11, 6,7-Dichloro-2-cyclopentyl-1-oxo-4-phenyl-1,2-dihydroisoquinoline-3-carboxylic Acid]	48	77	41	–	–	–
O=C(O)c1c(-c2ccccc2)c2cc(Cl)ccc2c(=O)n1C1CCOCC1 [Compound Y4, 6-Chloro-1-oxo-4-phenyl-2-(tetrahydro-2H-pyran-4-yl)-1,2-dihydroisoquinoline-3-carboxylic Acid]	14	71	50	–	–	–
O=C(O)c1c(-c2ccccc2)c2cc(Cl)ccc2c(=O)n1N1CCCCC1 [Compound Y9, 6-Chloro-1-oxo-4-phenyl-2-(piperidin-1-yl)-1,2-dihydroisoquinoline-3-carboxylic Acid]	59	95	72	–	–	–
Cc1nn(C)cc1-c1c(C(=O)O)n(C2CCCC2)c(=O)c2ccc(Cl)cc12 [Compound Y22, 6-Chloro-2-cyclopentyl-4-(1,3-dimethyl-1H-pyrazol-4-yl)-1-oxo-1,2-dihydroisoquinoline-3-carboxylic Acid]	1	36	36	–	–	–

Continued, in another order:

inhibition at 25 µM [1] [%]	inhibition at 25 µM [2] [%]	inhibition at 25 µM [3] [%]	SMILES	secretion of inflammatory factor MCP-1 in THP-1 mononuclear macrophages [4]	IL-6 secretion, tendency (no concentration stated) [5]	secretion of inflammatory factor IL-6 in THP-1 mononuclear macrophages ([5]; 25 μM)
82	88	43	O=C(O)c1c(-c2ccccc2)c2cc(Cl)ccc2c(=O)n1C1CC1 [Compound Y5, 6-Chloro-2-cyclopropyl-1-oxo-4-phenyl-1,2-dihydroisoquinoline-3-carboxylic Acid]	–	–	–
11	89	43	O=C(O)c1c(-c2ccccc2)c2cc(F)ccc2c(=O)n1C1CCCC1 [Compound Y13, 2-Cyclopentyl-6-fluoro-1-oxo-4-phenyl-1,2-dihydroisoquinoline-3-carboxylic Acid]	–	–	–
–	58	25	O=C(O)c1c(-c2ccccc2)c2ccccc2c(=O)n1C1CCCC1 [Compound Y12, 2-Cyclopentyl-1-oxo-4-phenyl-1,2-dihydroisoquinoline-3-carboxylic Acid]	–	–	–
81	94	60	O=C(O)c1c(-c2ccccc2)c2cc(Cl)ccc2c(=O)n1C1CCC1 [Compound Y6, 6-Chloro-2-cyclobutyl-1-oxo-4-phenyl-1,2-dihydroisoquinoline-3-carboxylic Acid]	–	–	–
29	70	50	O=C(O)c1c(-c2ccccc2)c2cc(Cl)ccc2c(=O)n1C1CCCCC1 [Compound Y1, 6-Chloro-2-cyclohexyl-1-oxo-4-phenyl-1,2-dihydroisoquinoline-3-carboxylic Acid]	–	–	–
26	90	55	Cc1ccc2c(=O)n(C3CCCC3)c(C(=O)O)c(-c3ccccc3)c2c1 [Compound Y14, 2-Cyclopentyl-6-methyl-1-oxo-4-phenyl-1,2-dihydroisoquinoline-3-carboxylic Acid]	–	–	–
57	95	58	O=C(O)c1c(-c2ccccc2)c2cc(Br)ccc2c(=O)n1C1CCCC1 [Compound Y10, 6-Bromo-2-cyclopentyl-1-oxo-4-phenyl-1,2-dihydroisoquinoline-3-carboxylic Acid]	–	–	–
18	78	57	O=C(O)c1c(-c2ccccc2)c2cc(Cl)ccc2c(=O)n1C1CCCCCC1 [Compound Y7, 6-Chloro-2-cycloheptyl-1-oxo-4-phenyl-1,2-dihydroisoquinoline-3-carboxylic Acid]	–	–	–
